Test results as given in patent publication US9290463B2, “Radiolabeled compounds and uses thereof” (THE TRUSTEES OF COLUMBIA UNIVERSITY IN THE CITY OF NEW YORK, priority 2010, dated 2016).

Assays:
human 5-HT1A receptor = human 5-HT1A receptor (Homo sapiens (Human), UniProt P08908); test: Inhibition of [3H]-8-OH-DPAT binding in membranes from CHO-h5-HT1A cells; conditions: 5 nM [3H]-8-OH-DPAT, read-out: Binding affinity value (Ki)
Experimental: In Vitro Agonist Binding Assay.
Preparation of Membrane Fractions from CHO-h5-HT1A Cells. Membranes from CHO cells stably expressing the human 5-HT1A receptor at a density of 8 pmol/mg membrane protein with 5-HT2c receptor background were prepared. Cells were grown in DMEM/F-12 medium supplemented with 5% fatal bovine serum, 50 ig/mL geneticin, and 50 ig/mL hygromycin B in a humidified atmosphere of 5% CO2 until they reached confluence. Cells were harvested by centrifugation (800 g for 5 min) and homogenized using a polytron homogenizer (Polytron, CH-6010 Kreiens-Lu, Brinkman Instrument, Westbury, N.Y.) in buffer containing 20 mM HEPES, pH7.4, 3 mM MgCl2, and a cocktail of protease inhibitors (Sigma-Aldrich, St. Louis, Mo.) at 1:2000 dilution. The homogenate was centrifuged (Beckman Optima LE80K Ultracentrifuge) at 100 000 g for 15 min at 4° C. The pellet was suspended in the same buffer and recentrifuged. The final pellet was suspended in assay buffer containing 20 mM HEPES, pH 7.4, 3 mM MgCl2, 100 mM NaCl, and a mixture of protease inhibitors and stored at −70° C. Protein concentration was determined by detergent compatible colorimetric assay using DC Protein Assay Reagents as recommended by the manufacturer (Bio-Rad, Hercules, Calif.).
Inhibition of [^3H]-8-OH-DPAT Binding by A-D or 5-HT in Membranes. For inhibition experiments, the incubation medium consisted of 20 mM HEPES, pH 7.4, 4 mM CaCl2, 5 nM [^3H]-8-OH-DPAT, and 30 μg of membrane protein in the presence of different concentrations of […] or 5-HT. The assay mixture was incubated for 10 min at 30° C. The reaction was terminated by rapid filtration through Whatman GF/B filters followed by three washes with ice cold 20 mM HEPES buffer, pH 7.4, using a cell harvester (Brandel, M-24R Gaitherburg, Md.). Bound radioactivity was determined by liquid scintillation spectrometry (Beckman).

5-HT1AR = 5-HT1AR (Rattus norvegicus (Rat), UniProt P19327); test: Endogenous changes of 5-HT measured with Compound E uptake and binding in pretreated rats; type: in vivo; conditions: for SBR (specific binding ratio) of Compound E, change versus saline / SUV of Compound E, change versus saline: hippocampus, 90 min after Compound E i.v., pretreated rats
5-HT1AR, sequence (P19327 whole entry): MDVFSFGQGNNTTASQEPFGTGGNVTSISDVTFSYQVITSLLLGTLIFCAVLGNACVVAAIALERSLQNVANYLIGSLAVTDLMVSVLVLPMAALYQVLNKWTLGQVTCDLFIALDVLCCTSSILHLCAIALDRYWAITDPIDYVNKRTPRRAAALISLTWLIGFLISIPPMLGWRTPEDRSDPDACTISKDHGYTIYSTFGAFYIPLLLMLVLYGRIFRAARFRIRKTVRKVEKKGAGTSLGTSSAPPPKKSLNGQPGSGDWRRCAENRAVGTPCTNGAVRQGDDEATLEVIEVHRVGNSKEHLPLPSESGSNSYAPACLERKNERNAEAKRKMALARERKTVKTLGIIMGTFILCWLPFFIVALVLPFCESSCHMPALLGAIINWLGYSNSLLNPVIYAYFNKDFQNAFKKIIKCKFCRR
Experimental: Endogenous changes of 5-HT measurement with Compound E: Rats were pretreated according to the group below, injected with 0.1 MBq (0.18±0.02 nmol/kg, i.v.) of Compound E, then killed by decapitation after 90 minutes. Blood was collected from the trunk, the brain was extracted and the striatum, hippocampus, frontal cortex and cerebellum were dissected. Brain regions were dissolved, plasma was separated from the blood and radioactivity concentrations were determined.
The uptake and binding of Compound E after injection differed by treatment condition. […] Changes in the specific binding ratio (SBR=(activity in ROI−activity in Cerebellum)/activity in Cerebellum) were significant in Fenfluramine 1 and 2.

5-HT1A = 5-HT1A (Rattus norvegicus (Rat), UniProt P19327); test: Ex vivo saturation binding of Compound E in rat brain regions; conditions: hippocampus and frontal cortex, rats 90 min after i.v. injection, one binding-site model
5-HT1A, sequence (P19327 whole entry): as above
Experimental: Ex vivo studies of compound E: Awake rats were injected in the tail vein with Compound E shown below:
Total mass injected was between 0.02 nmol/kg and 500 nmol/kg. All rats were decapitated after 90 minutes, based on time activity experiments with Compound E. The brains were extracted and brain regions were dissected, and then dissolved in Solvable (Packard). Blood was collected, and the plasma was separated. Radioactivity concentrations were determined by scintillation counting.
It was possible to saturate the 5-HT1A binding of Compound E in the frontal cortex and hippocampus. Data were best fitted with a one binding-site model. […] The cerebellum and plasma were unsaturable and no binding model could be fitted to the data.

human 5-HT1A receptor, sequence (P08908 whole entry): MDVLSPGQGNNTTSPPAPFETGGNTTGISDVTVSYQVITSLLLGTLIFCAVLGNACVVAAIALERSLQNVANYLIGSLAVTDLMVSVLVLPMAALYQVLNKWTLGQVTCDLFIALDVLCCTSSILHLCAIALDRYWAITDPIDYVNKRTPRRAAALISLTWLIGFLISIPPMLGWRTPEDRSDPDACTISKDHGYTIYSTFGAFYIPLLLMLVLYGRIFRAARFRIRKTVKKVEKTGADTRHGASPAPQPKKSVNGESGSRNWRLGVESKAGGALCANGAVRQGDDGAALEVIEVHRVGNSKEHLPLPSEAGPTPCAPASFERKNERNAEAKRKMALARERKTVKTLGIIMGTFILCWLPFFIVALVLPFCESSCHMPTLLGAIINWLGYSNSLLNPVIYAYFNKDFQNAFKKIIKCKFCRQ

| Compound | Ki (human 5-HT1A receptor) [nM] | SBR (specific binding ratio) of Compound E, change versus saline (5-HT1AR) | SUV of Compound E, change versus saline (5-HT1AR) | Change in uptake of Compound E by treatment condition (5-HT1AR; in words) | other results |
| --- | --- | --- | --- | --- | --- |
| Cn1c(=O)cnn(CCCCN2CCN(c3cccc(Br)n3)CC2)c1=O | 4 |  |  |  |  |
| Cn1c(=O)cnn(CCCCN2CCN(c3cccc(I)n3)CC2)c1=O | 5.5 |  |  |  |  |
| Cn1c(=O)cnn(CCCCN2CCN(c3ccccc3Br)CC2)c1=O | 6 |  |  |  |  |
| CN(C)CCCC1(c2ccc(F)cc2)OCc2cc(C#N)ccc21 (centres unmarked) [Citalopram] |  | −12.2% | +4.8% |  |  |
| [3H]COc1ccccc1N1CCN(CCCCn2ncc(=O)n(C)c2=O)CC1 [Compound E] |  |  |  |  | Kd (5-HT1A): 17 to 18 nM |
| CCNC(C)Cc1cccc(C(F)(F)F)c1 (centres unmarked) [Fenfluramine] |  | +32.8% | −0.1% | Significant changes in uptake | Change in specific binding ratio of Compound E by treatment condition (5-HT1AR; in words): significant |
| NC(Cc1ccc(Cl)cc1)C(=O)O (centres unmarked) [Single Housed + pCPA, pCPA] |  | −15.1% | −14.1% | Significant changes in uptake |  |
| [3H]COc1ccccc1N1CCN(CCCCn2ncc(=O)n(C)c2=O)CC1 [drawing 34] | 0.15 |  |  |  |  |
| Isoflurane [Isoflurane, 1-3% (Inhaled) + Saline] |  | −4.6% | +52.1% | Significant changes in uptake |  |
